Residues, ends and D or L forms follow the SMILES beside them.
T1: human NMUR1 receptor (Homo sapiens, UniProt Q9HB89)
T1 construct: expressed in transfected cells; host or cells: CHO-K1
T1 sequence (Q9HB89 1-426): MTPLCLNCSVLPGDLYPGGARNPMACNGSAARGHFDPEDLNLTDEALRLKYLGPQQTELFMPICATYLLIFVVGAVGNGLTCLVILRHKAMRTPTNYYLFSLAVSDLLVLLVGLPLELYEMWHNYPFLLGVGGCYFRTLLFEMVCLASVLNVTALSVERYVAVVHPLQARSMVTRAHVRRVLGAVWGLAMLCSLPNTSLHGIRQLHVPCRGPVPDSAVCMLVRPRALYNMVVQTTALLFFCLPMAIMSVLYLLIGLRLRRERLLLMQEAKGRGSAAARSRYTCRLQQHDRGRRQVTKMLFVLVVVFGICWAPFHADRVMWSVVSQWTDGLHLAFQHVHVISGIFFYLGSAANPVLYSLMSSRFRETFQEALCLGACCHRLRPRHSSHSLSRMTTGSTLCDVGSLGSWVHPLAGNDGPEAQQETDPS

T2: human neuromedin U receptor 1 (human, UniProt Q9HB89 24-426)
T2 sequence (looked up): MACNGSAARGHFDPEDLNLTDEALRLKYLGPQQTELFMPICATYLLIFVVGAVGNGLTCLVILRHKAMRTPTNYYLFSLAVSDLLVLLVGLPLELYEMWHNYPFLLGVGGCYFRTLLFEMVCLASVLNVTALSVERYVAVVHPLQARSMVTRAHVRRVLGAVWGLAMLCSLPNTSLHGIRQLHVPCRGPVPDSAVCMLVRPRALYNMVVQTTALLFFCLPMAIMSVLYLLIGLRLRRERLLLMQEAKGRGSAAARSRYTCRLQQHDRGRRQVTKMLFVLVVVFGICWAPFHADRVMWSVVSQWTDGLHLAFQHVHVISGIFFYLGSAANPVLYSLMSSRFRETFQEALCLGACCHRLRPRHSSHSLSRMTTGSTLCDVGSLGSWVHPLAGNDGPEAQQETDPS


Legend:
human NMUR1 receptor = target: T1, human NMUR1 receptor; assay: IP1 Gq HTRF assay, activation of human NMUR1 in buffer; type: cell-based; settings: CHO-K1 cells expressing human NMUR1, stimulation buffer with 0.1% BSA; read-out: EC50 (hNMUR1) buffer
Procedure, shortened: (§1)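 CHO-K1 cells stably expressing human NMUR1 or NMUR2, seeded 24 h before assay, stimulated with peptide agonists (8-point dose-response, 1% DMSO final) in HEPES/HBSS buffer with 50 mM LiCl and 0.1% BSA, pH 7.4, 1 h at 37 °C. IP1 accumulation read by HTRF competition (665/620 nm); EC50 from 4-parameter sigmoidal fit.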

human NMUR2 receptor [1] = target: T3, human NMUR2 receptor (Homo sapiens, UniProt Q9GZQ4); assay: IP1 Gq HTRF assay, activation of human NMUR2 in buffer; type: cell-based; set-up: expressed in transfected cells; host or cells: CHO-K1; settings: CHO-K1 cells expressing human NMUR2, stimulation buffer with 0.1% BSA; read-out: EC50 (hNMUR2) buffer
Procedure, shortened: as §1

human NMUR2 receptor [2] = target: T3, human NMUR2 receptor; assay: IP1 Gq HTRF assay, activation of human NMUR2 in human plasma; type: cell-based; set-up: expressed in transfected cells; host or cells: CHO-K1; settings: CHO-K1 cells expressing human NMUR2, 100% human plasma; read-out: EC50 (hNMUR2) human plasma
Procedure, shortened: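 CHO-K1 cells stably expressing human NMUR2 exposed to peptide agonists (8-point dose-response) in 100% human plasma with 50 mM LiCl, 1% DMSO, for 1 h at 37° C. IP1 accumulation read by HTRF competition (665/620 nm ratio). EC50 from 4-parameter sigmoidal fit.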

[3] = target: T2, human neuromedin U receptor 1; assay: cell-based or functional assay

T3 sequence (Q9GZQ4 whole entry): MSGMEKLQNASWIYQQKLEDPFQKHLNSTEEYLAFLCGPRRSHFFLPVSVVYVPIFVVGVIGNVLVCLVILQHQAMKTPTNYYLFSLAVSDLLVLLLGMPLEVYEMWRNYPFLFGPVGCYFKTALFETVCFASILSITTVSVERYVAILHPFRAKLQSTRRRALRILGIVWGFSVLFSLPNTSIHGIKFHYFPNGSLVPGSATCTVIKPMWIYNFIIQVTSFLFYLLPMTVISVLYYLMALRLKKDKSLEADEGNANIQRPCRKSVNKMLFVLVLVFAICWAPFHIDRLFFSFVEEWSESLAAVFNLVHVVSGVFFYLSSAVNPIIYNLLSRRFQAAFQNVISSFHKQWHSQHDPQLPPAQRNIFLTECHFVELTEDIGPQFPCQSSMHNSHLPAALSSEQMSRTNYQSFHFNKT

| EC50 (hNMUR1) buffer [3] [nM] | Molecule | EC50 (human NMUR1 receptor) [nM] | EC50 (human NMUR2 receptor [1]) [nM] | EC50 (human NMUR2 receptor [2]) [nM] |
| --- | --- | --- | --- | --- |
| – | CCCC[C@H](NC(=O)[C@H](CC(C)C)N(C)C(=O)[C@H](Cc1ccccc1)NC(=O)[C@H](Cc1ccc(O)cc1)NC(=O)CN1CCN(CCNC(=O)CN(C)C(=O)CN(C)C(=O)CN(C)C(=O)CN(C)C(=O)CN(C)C(=O)CN(C)C(=O)CN(C)C(=O)CN(C)C(=O)CN(C)C(=O)CN(C)C(=O)CN(C)C(=O)CN(C)C(=O)CC[C@H](NC(=O)CC[C@H](NC(=O)CC[C@H](NC(=O)CC[C@H](NC(=O)CCCCCCCCCCCCCCCCCCC(=O)O)C(=O)O)C(=O)O)C(=O)O)C(=O)O)CC1)C(=O)N[C@@H](CCCCN)C(=O)N(C)[C@@H](C)C(=O)N[C@@H](CCCNC(=N)N)C(=O)NCC(N)=O [Compound 19, C20DA-gGlu4-Sar12-AEPipAc-Tyr-Phe-NMeLeu-Nle-Lys-NMeAla-Arg-Gly-NH2] | 1400 | 5.7 | 36.6 |
| – | CCCC[C@H](NC(=O)[C@H](CC(C)C)N(C)C(=O)[C@H](Cc1ccccc1)NC(=O)[C@H](Cc1ccc(O)cc1)NC(=O)CN1CCN(CCNC(=O)CN(C)C(=O)CN(C)C(=O)CN(C)C(=O)CN(C)C(=O)CN(C)C(=O)CN(C)C(=O)CN(C)C(=O)CN(C)C(=O)CN(C)C(=O)CN(C)C(=O)CN(C)C(=O)CN(C)C(=O)CN(C)C(=O)CN(C)C(=O)CN(C)C(=O)CC[C@H](NC(=O)CC[C@H](NC(=O)CC[C@H](NC(=O)CC[C@H](NC(=O)CCCCCCCCCCCCCCCCCCC(=O)O)C(=O)O)C(=O)O)C(=O)O)C(=O)O)CC1)C(=O)N[C@@H](CCCN)C(=O)N1CCC[C@H]1C(=O)N[C@@H](CCCNC(=N)N)C(=O)NCC(N)=O [Compound 3, C20DA-gGlu4-Sar15-AEPipAc-Tyr-Phe-NMeLeu-Nle-Orn-Pro-Arg-Gly-NH2] (HELM PEPTIDE1{[O=C(O)CCCCCCCCCCCCCCCCCCC(=O)[*:2]].[gGlu].[gGlu].[gGlu].[gGlu].[Sar].[Sar].[Sar].[Sar].[Sar].[Sar].[Sar].[Sar].[Sar].[Sar].[Sar].[Sar].[Sar].[Sar].[Sar].[O=C(CN1CCN(CCN[*:1])CC1)[*:2]].Y.F.[meL].[Nle].[Orn].P.R.G.[am]}$$$$V2.0) | 440 | 1.9 | 5.6 |
| – | CCCC[C@H](NC(=O)[C@H](CC(C)C)N(C)C(=O)[C@H](Cc1ccccc1)NC(=O)[C@H](Cc1ccc(O)cc1)NC(=O)CN1CCN(CCNC(=O)CN(C)C(=O)CN(C)C(=O)CN(C)C(=O)CN(C)C(=O)CN(C)C(=O)CN(C)C(=O)CN(C)C(=O)CN(C)C(=O)CN(C)C(=O)CN(C)C(=O)CN(C)C(=O)CN(C)C(=O)CN(C)C(=O)CN(C)C(=O)CN(C)C(=O)CC[C@H](NC(=O)CC[C@H](NC(=O)CC[C@H](NC(=O)CCCCCCCCCCCCCCCCCCC(=O)O)C(=O)O)C(=O)O)C(=O)O)CC1)C(=O)N[C@@H](CCCCN)C(=O)N1CCC[C@H]1C(=O)N[C@@H](CCCNC(=N)N)C(=O)NCC(N)=O [Compound 49, C20DA-gGlu3-Sar15-AEPipAc-Tyr-Phe-NMeLeu-Nle-Lys-Pro-Arg-Gly-NH2] (HELM PEPTIDE1{[O=C(O)CCCCCCCCCCCCCCCCCCC(=O)[*:2]].[gGlu].[gGlu].[gGlu].[Sar].[Sar].[Sar].[Sar].[Sar].[Sar].[Sar].[Sar].[Sar].[Sar].[Sar].[Sar].[Sar].[Sar].[Sar].[O=C(CN1CCN(CCN[*:1])CC1)[*:2]].Y.F.[meL].[Nle].K.P.R.G.[am]}$$$$V2.0) | 1300 | 11 | 25.2 |
| – | CCCC[C@H](NC(=O)[C@H](CC(C)C)N(C)C(=O)[C@H](Cc1ccccc1)NC(=O)[C@H](Cc1ccc(O)cc1)NC(=O)CN1CCN(CCNC(=O)CN(C)C(=O)CN(C)C(=O)CN(C)C(=O)CN(C)C(=O)CN(C)C(=O)CN(C)C(=O)CC[C@H](NC(=O)CC[C@H](NC(=O)CCCCCCCCCCCCCCCCC(=O)O)C(=O)O)C(=O)O)CC1)C(=O)N[C@@H](CCCNC(=N)N)C(=O)N1CCC[C@H]1C(=O)N[C@@H](CCCNC(=N)N)C(=O)NCC(N)=O [Compound 71, C18DA-gGlu2-Sar6-AEPipAc-Tyr-Phe-NMeLeu-Nle-Arg-Pro-Arg-Gly-NH2] (HELM PEPTIDE1{[O=C(O)CCCCCCCCCCCCCCCCC(=O)[*:2]].[gGlu].[gGlu].[Sar].[Sar].[Sar].[Sar].[Sar].[Sar].[O=C(CN1CCN(CCN[*:1])CC1)[*:2]].Y.F.[meL].[Nle].R.P.R.G.[am]}$$$$V2.0) | 130 | 1.5 | 14.5 |
| – | CCCC[C@H](NC(=O)[C@H](CC(C)C)N(C)C(=O)[C@H](Cc1ccccc1)NC(=O)[C@H](Cc1ccc(O)cc1)NC(=O)CN1CCN(CCNC(=O)CN(C)C(=O)CN(C)C(=O)CN(C)C(=O)CN(C)C(=O)CN(C)C(=O)CN(C)C(=O)CN(C)C(=O)CN(C)C(=O)CN(C)C(=O)CN(C)C(=O)CN(C)C(=O)CN(C)C(=O)CC[C@H](NC(=O)CC[C@H](NC(=O)CC[C@H](NC(=O)CC[C@H](NC(=O)CCCCCCCCCCCCCCCCCCC(=O)O)C(=O)O)C(=O)O)C(=O)O)C(=O)O)CC1)C(=O)N[C@@H](CCN)C(=O)N(C)[C@@H](C)C(=O)N[C@@H](CCCNC(=N)N)C(=O)NCC(N)=O [Compound 31, C20DA-gGlu4-Sar12-AEPipAc-Tyr-Phe-NMeLeu-Nle-Dbu-NMeAla-Arg-Gly-NH2] | > 1000 | 3.7 | 14.6 |
| – | CCCC[C@H](NC(=O)[C@H](CC(C)C)N(C)C(=O)[C@H](Cc1ccccc1)NC(=O)[C@H](Cc1ccc(O)cc1)NC(=O)CN1CCN(CCNC(=O)CN(C)C(=O)CN(C)C(=O)CN(C)C(=O)CN(C)C(=O)CN(C)C(=O)CN(C)C(=O)CN(C)C(=O)CN(C)C(=O)CN(C)C(=O)CN(C)C(=O)CN(C)C(=O)CN(C)C(=O)CC[C@H](NC(=O)CC[C@H](NC(=O)CC[C@H](NC(=O)CCCCCCCCCCCCCCCCC(=O)O)C(=O)O)C(=O)O)C(=O)O)CC1)C(=O)N(C)[C@@H](CCCNC(=N)N)C(=O)N1CCC[C@H]1C(=O)N[C@@H](CCCNC(=N)N)C(=O)NCC(N)=O [Compound 35, C18DA-gGlu3-Sar12-AEPipAc-Tyr-Phe-NMeLeu-Nle-NMeArg-Pro-Arg-Gly-NH2] | 190 | 1.5 | 9.4 |
| 770 | EEEEXXXXXXXXXXXXXXXXYFLXXPRG (HELM PEPTIDE1{[O=C(O)CCCCCCCCCCCCCCCCCCC(=O)[*:2]].[gGlu].[gGlu].[gGlu].[gGlu].[Sar].[Sar].[Sar].[Sar].[Sar].[Sar].[Sar].[Sar].[Sar].[Sar].[Sar].[Sar].[Sar].[Sar].[Sar].[O=C(CN1CCN(CCN[*:1])CC1)[*:2]].Y.F.[meL].[Nle].[Dab].P.R.G.[am]}$$$$V2.0; SMILES CCCC[C@H](NC(=O)[C@H](CC(C)C)N(C)C(=O)[C@H](Cc1ccccc1)NC(=O)[C@H](Cc1ccc(O)cc1)NC(=O)CN1CCN(CCNC(=O)CN(C)C(=O)CN(C)C(=O)CN(C)C(=O)CN(C)C(=O)CN(C)C(=O)CN(C)C(=O)CN(C)C(=O)CN(C)C(=O)CN(C)C(=O)CN(C)C(=O)CN(C)C(=O)CN(C)C(=O)CN(C)C(=O)CN(C)C(=O)CN(C)C(=O)CC[C@H](NC(=O)CC[C@H](NC(=O)CC[C@H](NC(=O)CC[C@H](NC(=O)CCCCCCCCCCCCCCCCCCC(=O)O)C(=O)O)C(=O)O)C(=O)O)C(=O)O)CC1)C(=O)N[C@@H](CCN)C(=O)N1CCC[C@H]1C(=O)N[C@@H](CCCNC(=N)N)C(=O)NCC(N)=O) [C20DA-gGlu4-Sar15-AEPipAc-Tyr-Phe-NMeLeu-Nle-Dbu-Pro-Arg-Gly-NH2] | – | – | – |

Source: patent US20240279278A1, “NMU RECEPTOR 2 AGONISTS” (Boehringer Ingelheim International GmbH, priority 2023, published 2024)
